Data from EP2057188B1 (priority 2006, dated 2008).
Ends that are not written are not given here.

Columns and labels:
human GIP receptor [1] = target: T1, human GIP receptor (Homo sapiens, UniProt P48546); assay: biochemical; conditions: read-out: %Inh 10nM
human GIP receptor [2] = target: T1, human GIP receptor
[3] = target: cardiomyocyte Gs- and Gi-coupled receptors; assay: cAMP assay in neonatal cardiomyocytes; type: cell-based, rat
Experimental: Activation of cardiomyocyte Gs- and Gi-coupled receptors was determined as a measure of cAMP production.
Neonatal cardiomyocytes were isolated using a commercially available system. […] Sprague Dawley neonatal rats (1-2 days old) were decapitated and the beating heart dissected out into digestion buffer (Cellutron D1 buffer) to dissociate cells. […] The resuspended cells incubated in buffer (Cellutron D3 buffer) for sufficient time to allow optimal dispersion and minimize the need for pipetting to break up clumps. Cells released from the first 2 digestions were discarded since a significant portion of these is red blood cells. Resuspended cells were filtered and allowed to pre-plate for 1 hour on plastic in an incubator in NS media (Cellutron, NJ) in order to remove fibroblasts. After 1 hour of pre-plating, floating cells are removed and the flask rinsed with NS media. The floating cells and the cells in the rinse media were combined and counted. Residual red blood cells, which are smaller that the cardiac myocytes, were not counted.
At Day 1, the NS media was replaced with fresh NS media.
Dose response was determined.
For Gs assays the positive control was 10uM forskolin and negative control was buffer. For Gi assays the positive control was buffer and the negative control was 10uM forskolin.

[4] = type: in vivo, rats; conditions: 100 pmol/kg/min infusion dose in rats
Experimental: As described, fed, isoflurane anesthetized HSD male rats were intubated and cannulated via femoral artery and vein and allowed to stabilize for 1 hour. […] At t=0, an i.v. bolus of 5.7mmol/kg D-glucose was administered over 2 minutes. Samples for glucose measurement and insulin concentrations were taken at various time points before and after (0 to 90 minutes) glucose infusion.

[5] = Circulatory system effects in conscious rats by telemetry; type: in vivo, Harlan Sprague Dawley rats
[6] = Calcium lowering (GIP hybrids, Figure 23B); type: in vivo; conditions: summary of properties
Experimental: (§1) In Figure 13B bars represent mean +/- sd. Peptide was injected IP at t = -5 minutes into 4-hour fasted NIH/Swiss female mice. Gavage (1.5g/kg) was given at t = 0. […] In Figure 17 points represent mean +/- sem. […] Samples were taken at t=60, t=120 and t=180.

[7] = type: in vivo, NIH/Swiss mice; conditions: summary of properties
Experimental: In Figure 3A, bars represent mean ± sd, n=6-10. […] Gavage (1.5g/kg) was given at t=0. Sample was taken at t=30 min. […] In Figure 3B, points represent mean ± sem, n=8-15.
as §1

[8] = type: in vivo, db/db mice; conditions: Figure 4; GIP at a 10 fold higher dose
Experimental: Peptide was injected IP at t=0 immediately following baseline sample into 2-hour fasted db/db mice.

[9] = type: in vivo, NIH/Swiss mice; conditions: mice; summary of properties
Experimental: Gavage (1.5g/kg) was given at t=0. Sample was taken at t=30 min.

[10] = Body composition in DIO mice; type: in vivo, C57BL/6J mice; conditions: summary of properties
Text: An exemplary assay can be one that involves utilization of a diet-induced obese (DIO) mouse model for metabolic disease. […] During the study, the mice can continue to eat their high-fat diet. Water can be provided ad libitum throughout the study.
DIO mice can be implanted with subcutaneous (SC) intrascapular osmotic pumps to deliver either vehicle (50% dimethylsulfoxide (DMSO) in water) or a compound of the invention. […] Body weights and food intake can be measured over regular intervals throughout the study periods. Respiratory quotient (RQ, defined as CO2 production ÷ O2 consumption) and metabolic rate can be determined using whole-animal indirect calorimetry (Oxymax, Columbus Instruments, Columbus, OH). The mice can be euthanized by isoflurane overdose, and an index of adiposity (bilateral epididymal fat pad weight) measured. Moreover, prior to determination of epididymal weight, body composition (lean mass, fat mass) for each mouse can be analyzed using a Dual Energy X-ray Absorptiometry (DEXA) instrument per manufacturer's instructions (Lunar Piximus, GE Imaging System).

[11] = Gastric emptying (GIP hybrids, Figure 23A); type: in vivo; conditions: summary of properties
Experimental: as §1

[12] = type: in vivo, C57BL/6 mice
[13] = at doses of 100µg; cited from earlier work
[14] = Glucose in rats (summary table); type: in vivo; conditions: summary of properties
human GIP receptor [15] = conditions: read-out: GIP RBA; GIP receptor binding; RIN where stated; unit nM printed for these values
[16] = 80 nmol/kg, remote intravenous dosing

T1 sequence (P48546 22-466 limits assumed): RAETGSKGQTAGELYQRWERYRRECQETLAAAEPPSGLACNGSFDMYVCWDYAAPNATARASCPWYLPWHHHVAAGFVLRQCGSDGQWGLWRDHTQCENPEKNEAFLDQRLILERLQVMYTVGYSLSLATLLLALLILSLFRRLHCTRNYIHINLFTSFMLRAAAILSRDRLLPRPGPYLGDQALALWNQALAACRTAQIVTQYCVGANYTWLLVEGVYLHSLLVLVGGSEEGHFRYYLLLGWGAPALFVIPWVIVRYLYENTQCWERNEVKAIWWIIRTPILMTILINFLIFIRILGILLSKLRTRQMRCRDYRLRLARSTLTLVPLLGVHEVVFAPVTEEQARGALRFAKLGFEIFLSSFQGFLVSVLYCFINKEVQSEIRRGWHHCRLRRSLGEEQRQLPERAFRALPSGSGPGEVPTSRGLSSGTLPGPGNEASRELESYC

Q: Which inhibition at 0.01 µM (human GIP receptor [1]) does the source give for `CC[C@H](C)[C@H](NC(=O)[C@H](CO)NC(=O)[C@H](Cc1ccc(O)cc1)NC(=O)[C@H](CC(=O)O)NC(=O)[C@H](CO)NC(=O)[C@@H](NC(=O)[C@H](Cc1ccccc1)NC(=O)[C@@H](NC(=O)CNC(=O)[C@H](CC(=O)O)NC(=O)[C@H](C)NC(=O)[C@@H](N)Cc1ccc(O)cc1)[C@@H](C)O)[C@@H](C)CC)C(=O)N[C@@H](C)C(=O)N[C@@H](CCSC)C(=O)N[C@@H](CC(=O)O)C(=O)N[C@@H](CCCCN)C(=O)N[C@H](C(=O)N[C@@H](Cc1c[nH]cn1)C(=O)N[C@@H](CCC(N)=O)C(=O)N[C@@H](CCC(N)=O)C(=O)N[C@@H](CC(=O)O)C(=O)N[C@@H](Cc1ccccc1)C(=O)N[C@H](C(=O)N[C@@H](CC(N)=O)C(=O)N[C@@H](Cc1c[nH]c2ccccc12)C(=O)N[C@@H](CC(C)C)C(=O)N[C@@H](CC(C)C)C(=O)N[C@@H](C)C(=O)N[C@@H](CCC(N)=O)C(=O)N[C@@H](CCCCN)C(=O)N1CCC[C@H]1C(=O)N[C@@H](CCCCN)C(=O)N[C@@H](CCCCN)C(=O)N[C@H](C(=O)N[C@@H](CCCNC(=N)N)C(=O)N[C@@H](Cc1ccc(O)cc1)C(=O)N[C@@H](CO)C(N)=O)[C@@H](C)CC)C(C)C)[C@@H](C)CC` [Compound 0601GIP4390] here?
A: 90.3%

Q: Which “(%Inh 10nm,GIP-LF Assay)” value (human GIP receptor [2]) does the source give for “HGEGTLISDYSIAMDKIHQQDFVNWLLAQKPKKIRYS-NH2 [0601 GIP48 43]” here?
A: 3(%Inh 10nM)

Q: With “YAEGTFISDYSIAMDKIHQQDFVNWLLAQKGKKNDWKHNITQ-OH [GIP]” as the molecule, how does the EC(50) ([3]; cAMP production, experiment of Figures 18A/18B) read?
A: 9.1 nM

Q: What about the EC(50) ([3]; cardiomyocyte Gs-coupled receptor activation, three independent experiments) of the same molecule?
A: 15.6 nM

Q: And the “insulin levels prior to the glucose challenge” value [4]?
A: significant rise in insulin levels

Q: And the “insulinotropic response to an intravenous glucose challenge” value [4]?
A: significant enhancement of the insulinotropic response

Q: What about the “dP/dt (inotropic effect)” value [5, 16] of the same molecule?
A: positive inotropic effect

Q: What about the heart rate [5, 16] of the same molecule?
A: chronotropic (heart rate elevating) effect

Q: What about the mean arterial pressure [5, 16] of the same molecule?
A: no effect

Q: What about the “Heart Rate (rat)” value ([5]; rat, summary of properties) of the same molecule?
A: increases

Q: And the “MAP. (rat)” value ([5]; rat, summary of properties)?
A: not active

Q: What about the iCa [6] of the same molecule?
A: not active

Q: And the acute food intake (IP at t=0, consumed at t=30, 60, 120 min)?
A: did not acutely inhibit food intake

Q: And the “Food Intake” value (summary of properties)?
A: not active

Q: What about the OGTT [7] of the same molecule?
A: decreases

Q: What about the “glucose lowering in a diabetic mouse model” value [8] of the same molecule?
A: modest and wanes over time

Q: What about the Glucose mice [9] of the same molecule?
A: weak

Q: And the “Body Comp (mDIO)” value [10]?
A: No effect on lean mass

Q: What about the “Gastric Emptying” value [11] of the same molecule?
A: not active

Q: And the “BWt (mDIO)” value ([12]; DIO mice, summary of properties)?
A: not active

Q: What about the “body weight change in diet-induced-obese mice” value ([12]; infused via osmotic pump for 2 weeks, high-fat diet) of the same molecule?
A: no effect on body weight change

Q: And the “inhibition of gastric emptying” value [13]?
A: weakly active or inactive

Q: And the Glucose rats [14]?
A: not active

Q: For “YSDGTFISDYSIAMDKlHQQDFVNWLLAQKPKKIRYS-NH2 [Compound 0601GIP4386]”, which IC50 (human GIP receptor [15]) is on record?
A: 156 nM
